Measurements taken from US9359297B2, “Spirolactam derivatives and uses of same” (H. Lundbeck A/S, priority 2009, dated 2016).

Biological target: T1, rat metabotropic glutamate receptor 5 (rmGluR5) (Rattus norvegicus, UniProt P31424)
T1 construct: expressed in transfected cells
Experiment: Calcium mobilization (FLIPR) assay for negative allosteric modulation, EC80 glutamate, rmGluR5 in HEK 293
Format: cell-based
Details: HEK293; rmGluR5, inhibition of EC80 glutamate response; read-out: FLIPR maximum inhibition
Protocol: The cDNA for rat metabotropic glutamate receptor 5 (rmGluR5) and the cDNA for human metabotropic glutamate receptor 5 (hmGluR5) were generous gifts from S. Nakanishi (Kyoto University, Kyoto, Japan). The rmGluR5 or hmGluR5 was stably expressed in a HEK 293 cell line and grown in Dulbecco's Modified Eagle Medium (DMEM) (Invitrogen, Carlsbad, Calif.) with supplements (10% bovine calf serum, 4 mM glutamine, 100 units/mL penicillin, 100 μg/mL streptomycin and 0.75 mM G1418) at 37° C., 5% CO2. Twenty-four hours prior to assay, cells were seeded into 384-well black wall microtiter plates coated with poly-D-lysine. Just prior to assay, media was aspirated and cells dye-loaded (25 μL/well) with 3 μM Fluo-4/0.01% pluronic acid in assay buffer (Hank's Balanced Saline Solution (HBSS)): 150 mM NaCl, 5 mM KCl, 1 mM CaCl2, 1 mM MgCl2, plus 20 mM N-2-Hydroxyethylpiperazine-N′-2-ethanesulfonic acid (HEPES), pH 7.4, 0.1% bovine serum albumin (BSA) and 2.5 mM probenicid) for 1 hour in 5% CO2 at 37° C. After excess dye was discarded, cells were washed in assay buffer and layered with a final volume equal to 30 μL/well. Basal fluorescence is monitored in a fluorometric imaging plate reader (FLIPR) (Molecular Devices, Sunnyvale, Calif.) with an excitation wavelength of 488 nm and an emission range of 500 to 560 nm. Laser excitation energy was adjusted so that basal fluorescence readings were approximately 10,000 relative fluorescent units. Cells were stimulated with an EC20 or an EC80 concentration of glutamate in the presence of a compound to be tested, both diluted in assay buffer, and relative fluorescent units were measured at defined intervals (exposure=0.6 sec) over a 3 min period at room temperature. Basal readings derived from negative controls were subtracted from all samples. Maximum change in fluorescence was calculated for each well. Concentration-response curves derived from the maximum change in fluorescence were analyzed by nonlinear regression (Hill equation). A negative modulator can be identified from these concentration-response curves if a compound produces a concentration dependent inhibition of the EC80 glutamate response.

T1 sequence (P31424 21-1203): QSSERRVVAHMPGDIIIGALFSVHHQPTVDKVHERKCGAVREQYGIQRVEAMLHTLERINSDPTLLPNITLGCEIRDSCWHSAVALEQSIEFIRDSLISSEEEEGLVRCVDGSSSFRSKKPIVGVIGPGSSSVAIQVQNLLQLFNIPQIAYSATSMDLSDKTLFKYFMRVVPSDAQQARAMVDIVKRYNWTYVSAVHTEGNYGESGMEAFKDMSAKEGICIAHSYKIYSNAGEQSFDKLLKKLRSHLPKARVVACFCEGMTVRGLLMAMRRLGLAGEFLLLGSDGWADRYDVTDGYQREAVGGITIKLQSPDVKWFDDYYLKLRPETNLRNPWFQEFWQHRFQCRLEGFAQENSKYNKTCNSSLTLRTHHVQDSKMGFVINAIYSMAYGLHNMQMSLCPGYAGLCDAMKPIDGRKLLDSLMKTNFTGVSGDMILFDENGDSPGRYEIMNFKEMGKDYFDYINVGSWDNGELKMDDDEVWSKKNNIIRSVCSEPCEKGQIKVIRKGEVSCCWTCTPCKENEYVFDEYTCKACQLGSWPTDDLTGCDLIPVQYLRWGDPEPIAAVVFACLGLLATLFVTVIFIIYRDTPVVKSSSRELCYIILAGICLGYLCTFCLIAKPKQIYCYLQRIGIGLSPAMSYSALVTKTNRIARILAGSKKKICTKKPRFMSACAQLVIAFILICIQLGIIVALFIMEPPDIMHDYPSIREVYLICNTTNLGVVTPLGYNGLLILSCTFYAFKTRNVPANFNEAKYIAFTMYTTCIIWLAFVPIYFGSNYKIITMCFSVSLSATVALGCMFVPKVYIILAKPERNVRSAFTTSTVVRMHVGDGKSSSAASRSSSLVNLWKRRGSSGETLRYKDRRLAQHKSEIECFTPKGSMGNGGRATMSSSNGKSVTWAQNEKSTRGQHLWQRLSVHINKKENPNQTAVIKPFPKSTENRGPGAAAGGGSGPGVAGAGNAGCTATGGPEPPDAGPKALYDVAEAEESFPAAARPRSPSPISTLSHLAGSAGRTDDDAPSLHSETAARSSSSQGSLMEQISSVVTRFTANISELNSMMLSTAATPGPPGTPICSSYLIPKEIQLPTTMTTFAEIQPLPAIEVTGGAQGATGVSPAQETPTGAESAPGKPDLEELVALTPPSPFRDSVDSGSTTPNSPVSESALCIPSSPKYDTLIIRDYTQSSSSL

Emax [%] | Structure (SMILES)
81 to 99 | O=C(N[C@H]1CCC[C@]2(CCN(c3cc(F)ccn3)C2=O)C1)c1cccc(F)c1 (relative stereo) [Example 36, cis-3-Fluoro-N-[2-(4-fluoro-pyridin-2-yl)-1-oxo-2-aza-spiro[4.5]dec-7-yl]-benzamide]
81 to 99 | Cc1ccnc(N2CC[C@]3(CCC[C@H](NC(=O)c4cccc(F)c4)C3)C2=O)n1 (relative stereo) [Example 37, cis-3-Fluoro-N-[2-(4-methyl-pyrimidin-2-yl)-1-oxo-2-aza-spiro[4.5]dec-7-yl]-benzamide]
81 to 99 | Cc1cncc(N2CC[C@]3(CCC[C@H](NC(=O)c4cccc(F)c4)C3)C2=O)n1 (relative stereo) [Example 38, cis-3-Fluoro-N-[2-(6-methyl-pyrazin-2-yl)-1-oxo-2-aza-spiro[4.5]dec-7-yl]-benzamide]
81 to 99 | Cc1cncc(N2CC[C@]3(CCC[C@H](NC(=O)c4ccccn4)C3)C2=O)n1 (relative stereo) [Example 39, cis-Pyridine-2-carboxylic acid [2-(6-methyl-pyrazin-2-yl)-1-oxo-2-aza-spiro [4.5]dec-7-yl]-amide]
81 to 99 | Cc1cccc(C(=O)N[C@H]2CCC[C@]3(CCN(c4cncc(C)n4)C3=O)C2)n1 (relative stereo) [Example 40, cis-6-Methyl-pyridine-2-carboxylic acid [2-(6-methyl-pyrazin-2-yl)-1-oxo-2-aza-spiro[4.5]dec-7-yl]-amide]
81 to 99 | Cc1cccc(C(=O)N[C@H]2CCC[C@]3(CCN(c4cccc(C#N)n4)C3=O)C2)n1 (relative stereo) [Example 43, cis-6-Methyl-pyridine-2-carboxylic acid [2-(6-cyano-pyridin-2-yl)-1-oxo-2-aza-spiro[4.5]dec-7-yl]-amide]
81 to 99 | Cc1cccc(C(=O)N[C@H]2CCC[C@]3(CCN(c4ccccc4)C3=O)C2)n1 (relative stereo) [Example 46, cis-6-Methyl-pyridine-2-carboxylic acid (1-oxo-2-phenyl-2-aza-spiro[4.5]dec-7-yl)-amide]
81 to 99 | Cc1cccc(N2CC[C@]3(CCC[C@H](NC(=O)c4cccc(C)n4)C3)C2=O)c1 (relative stereo) [Example 47, cis-6-Methyl-pyridine-2-carboxylic acid (1-oxo-2-m-tolyl-2-aza-spiro[4.5]dec-7-yl)-amide]
81 to 99 | Cc1ccnc(N2CC[C@]3(CCC[C@H](NC(=O)c4cccc(C)n4)C3)C2=O)c1 (relative stereo) [Example 48, cis-6-Methyl-pyridine-2-carboxylic acid [2-(4-methyl-pyridin-2-yl)-1-oxo-2-aza-spiro[4.5]dec-7-yl]-amide]
81 to 99 | Cc1ccc(N2CC[C@]3(CCC[C@H](NC(=O)c4cccc(C)n4)C3)C2=O)nc1 (relative stereo) [Example 49, cis-6-Methyl-pyridine-2-carboxylic acid [2-(5-methyl-pyridin-2-yl)-1-oxo-2-aza-spiro[4.5]dec-7-yl]-amide]
81 to 99 | Cc1cccc(C(=O)N[C@H]2CCC[C@]3(CCN(c4ncccc4C)C3=O)C2)n1 (relative stereo) [Example 50, cis-6-Methyl-pyridine-2-carboxylic acid [2-(3-methyl-pyridin-2-yl)-1-oxo-2-aza-spiro[4.5]dec-7-yl]-amide]
81 to 99 | Cc1cccc(C(=O)N[C@H]2CCC[C@]3(CCN(c4ccccc4F)C3=O)C2)n1 (relative stereo) [Example 51, cis-6-Methyl-pyridine-2-carboxylic acid [2-(2-fluoro-phenyl)-1-oxo-2-aza-spiro[4.5]dec-7-yl]-amide]
81 to 99 | Cc1cc(N2CC[C@]3(CCC[C@H](NC(=O)c4cccc(C)n4)C3)C2=O)ccn1 (relative stereo) [Example 52, cis-6-Methyl-pyridine-2-carboxylic acid [2-(2-methyl-pyridin-4-yl)-1-oxo-2-aza-spiro[4.5]dec-7-yl]-amide]
81 to 99 | N#Cc1cccc(N2CC[C@]3(CCC[C@H](NC(=O)c4cccc(F)c4)C3)C2=O)n1 (relative stereo) [Example 53, cis-N-[2-(6-Cyano-pyridin-2-yl)-1-oxo-2-aza-spiro[4.5]dec-7-yl]-3-fluoro-benzamide]
81 to 99 | O=C(N[C@H]1CCC[C@]2(CCN(c3cc(F)cc(F)c3)C2=O)C1)c1ccccn1 (relative stereo) [Example 54, cis-Pyridine-2-carboxylic acid [2-(3,5-difluoro-phenyl)-1-oxo-2-aza-spiro [4.5]dec-7-yl]-amide]
81 to 99 | Cc1cncc(C(=O)N[C@H]2CCC[C@]3(CCN(c4cc(F)cc(F)c4)C3=O)C2)n1 (relative stereo) [Example 55, cis-6-Methyl-pyrazine-2-carboxylic acid [2-(3,5-difluoro-phenyl)-1-oxo-2-aza-spiro [4.5]dec-7-yl]-amide]
81 to 99 | O=C(N[C@H]1CCC[C@]2(CCN(c3cc(F)cc(F)c3)C2=O)C1)c1cnccn1 (relative stereo) [Example 56, cis-Pyrazine-2-carboxylic acid [2-(3,5-difluoro-phenyl)-1-oxo-2-aza-spiro [4.5]dec-7-yl]-amide]
81 to 99 | Cc1nccc(C(=O)N[C@H]2CCC[C@]3(CCN(c4ccc(F)cn4)C3=O)C2)n1 (relative stereo) [Example 57, cis-2-Methyl-pyrimidine-4-carboxylic acid [2-(5-fluoro-pyridin-2-yl)-1-oxo-2-aza-spiro [4.5]dec-7-yl]-amide]
81 to 99 | O=C(N[C@H]1CCC[C@]2(CCN(c3cccc(Cl)c3)C2=O)C1)c1ccccn1 (single isomer, unassigned) [Example 6]
81 to 99 | O=C(N[C@H]1CCC[C@@]2(CCN(c3cccc(Cl)c3)C2=O)C1)c1ccccn1 [Example 1, trans-Pyridine-2-carboxylic acid [2-(3-chloro-phenyl)-1-oxo-2-aza-spiro[4.5]dec-7-yl]amide]
81 to 99 | Cc1cccc(N2CCC3(CCCC(NC(=O)c4cccc(Cl)c4)C3)C2=O)n1 (centres unmarked) [Example 8, 3-Chloro-N-[2-(6-methyl-pyridin-2-yl)-1-oxo-2-aza-spiro[4.5]dec-7-yl]-benzamide]
81 to 99 | Cc1cccc(N2CC[C@@]3(CCC[C@@H](NC(=O)c4cccc(F)c4)C3)C2=O)n1 [Example 28, 3-Fluoro-N-[(5R,7R)-2-(6-methyl-pyridin-2-yl)-1-oxo-2-aza-spiro[4.5]dec-7-yl]-benzamide]
81 to 99 | Cc1cccc(C(=O)N[C@H]2CCC[C@]3(CCN(c4ccccn4)C3=O)C2)n1 [Example 45, 6-Methyl-pyridine-2-carboxylic acid (1-oxo-2-pyridin-2-yl-2-aza-spiro[4.5]dec-7-yl)-amide]
